{
  "source": "paper PMC7587356",
  "about": "“High-Throughput Screening for Inhibitors of the SARS-CoV-2 Protease Using a FRET-Biosensor” (Molecules, 2020)",
  "biological_target": "SARS-CoV-2 3CLpro (Severe acute respiratory syndrome coronavirus 2, UniProt P0DTD1)",
  "experiment": "biochemical",
  "type": "biochemical",
  "parameters": "Replicate_1 / Replicate_2 / mean / mean (LOPAC_screen_w_protease): unit not given here",
  "details": "for inhibition at 5 µM: 4 h",
  "key": {"[1]": {"details": "sheet LOPAC_screen_w_protease, primary screen of LOPAC1280 at 5 µM with protease, mean of the two replicates"}, "[2]": {"details": "sheet LOPAC_screen_w_protease, primary screen of LOPAC1280 at 5 µM with protease, replicate 1"}, "[3]": {"details": "sheet LOPAC_screen_w_protease, primary screen of LOPAC1280 at 5 µM with protease, replicate 2"}, "[4]": {"details": "sheet LOPAC_screen_w_protease, primary screen with protease, 5 µM, mean of two replicates, read-out: mean"}, "[5]": {"details": "sheet LOPAC_screen_w_protease, primary screen with protease, 5 µM, replicate 1, read-out: Replicate_1"}, "[6]": {"details": "sheet LOPAC_screen_w_protease, primary screen with protease, 5 µM, replicate 2, read-out: Replicate_2"}, "[7]": {"details": "LOPAC1280 primary screen with protease, 5 µM compound, replicate 1, read-out: Replicate_1 (LOPAC_screen_w_protease)"}, "[8]": {"details": "LOPAC1280 primary screen with protease, 5 µM compound, replicate 2, read-out: Replicate_2 (LOPAC_screen_w_protease)"}, "[9]": {"details": "LOPAC1280 primary screen with protease, 5 µM compound, mean of two replicates"}, "[10]": {"details": "LOPAC1280 primary screen with protease, 5 µM compound, replicate 1"}, "[11]": {"details": "LOPAC1280 primary screen with protease, 5 µM compound, replicate 2"}, "[12]": {"details": "LOPAC1280 primary screen with protease, 5 µM compound, mean of the two replicates"}, "[13]": {"details": "sheet LOPAC_screen_w_protease, primary screen with protease, mean of two replicates"}, "[14]": {"details": "sheet LOPAC_screen_w_protease, primary screen with protease, replicate 1"}, "[15]": {"details": "sheet LOPAC_screen_w_protease, primary screen with protease, replicate 2"}},
  "note": "Counter-ions that a name gives are not always drawn. Like-named read-outs stand apart in the source and are kept apart here.",
  "data": [
    {"smiles": "C[C@H](O)C(=O)C1=Nc2c(nc(N)[nH]c2=O)NC1", "note": "[Sepiapterin]", "values": [
      {"measurement": "inhibition at 5 µM", "setting": "sheet LOPAC_screen_w_protease, primary screen with protease, mean of two replicates, read-out: mean", "result": 2.57, "unit": "%"},
      {"measurement": "inhibition at 5 µM", "setting": "sheet LOPAC_screen_w_protease, primary screen with protease, replicate 1, read-out: Replicate_1", "result": 2.59, "unit": "%"},
      {"measurement": "inhibition at 5 µM", "setting": "sheet LOPAC_screen_w_protease, primary screen with protease, replicate 2, read-out: Replicate_2", "result": 2.55, "unit": "%"}
    ]},
    {"smiles": "CC1COc2c(N3CCN(C)CC3)c(F)cc3c(=O)c(C(=O)O)cn1c23", "note": "(stereo not drawn) [Ofloxacin]", "values": [
      {"measurement": "inhibition at 5 µM", "setting": "sheet LOPAC_screen_w_protease, LOPAC1280 primary screen with protease, 5 µM compound, mean of the two replicates, read-out: mean", "result": 6.37, "unit": "%"},
      {"measurement": "inhibition at 5 µM", "setting": "sheet LOPAC_screen_w_protease, LOPAC1280 primary screen with protease, 5 µM compound, replicate 1, read-out: Replicate_1", "result": 5.61, "unit": "%"},
      {"measurement": "inhibition at 5 µM", "setting": "sheet LOPAC_screen_w_protease, LOPAC1280 primary screen with protease, 5 µM compound, replicate 2, read-out: Replicate_2", "result": 7.14, "unit": "%"}
    ]},
    {"smiles": "CC[C@@]1(O)C(=O)OCc2c1cc1n(c2=O)Cc2cc3ccccc3nc2-1", "note": "[(S)-(+)-Camptothecin]", "values": [
      {"measurement": "mean", "setting": "[1]", "result": 3.282},
      {"measurement": "Replicate_1", "setting": "[2]", "result": 4.077},
      {"measurement": "Replicate_2", "setting": "[3]", "result": 2.488}
    ]},
    {"smiles": "C[N+](C)(C)CCCCCCCCCC[N+](C)(C)C.[Br-].[Br-]", "note": "[Decamethonium dibromide]", "values": [
      {"measurement": "mean", "setting": "sheet LOPAC_screen_w_protease, LOPAC1280 at 5 µM, mean of two replicates", "result": 1.23},
      {"measurement": "Replicate_1", "setting": "sheet LOPAC_screen_w_protease, LOPAC1280 at 5 µM, replicate 1", "result": 2.965},
      {"measurement": "Replicate_2", "setting": "sheet LOPAC_screen_w_protease, LOPAC1280 at 5 µM, replicate 2", "result": -0.5048}
    ]},
    {"smiles": "COc1ccccc1N1CCN(CCCNc2cc(=O)n(C)c(=O)n2C)CC1", "note": "[Urapidil hydrochloride]", "values": [
      {"measurement": "inhibition at 5 µM", "setting": "[4]", "result": -0.372, "unit": "%"},
      {"measurement": "inhibition at 5 µM", "setting": "[5]", "result": 0.127, "unit": "%"},
      {"measurement": "inhibition at 5 µM", "setting": "[6]", "result": -0.871, "unit": "%"}
    ]},
    {"smiles": "CN1[C@@H]2CC[C@H]1C[C@@H](OC(=O)c1cc(Cl)cc(Cl)c1)C2", "note": "[3-Tropanyl-3,5-dichlorobenzoate]", "values": [
      {"measurement": "inhibition at 5 µM", "setting": "[7]", "result": 2.08, "unit": "%"},
      {"measurement": "inhibition at 5 µM", "setting": "[8]", "result": 0.785, "unit": "%"},
      {"measurement": "mean (LOPAC_screen_w_protease)", "setting": "[9]", "result": 1.4299}
    ]},
    {"smiles": "O=C1NC(=O)C(c2ccccc2)(c2ccccc2)N1", "note": "[5,5-Diphenylhydantoin]", "values": [
      {"measurement": "inhibition at 5 µM", "setting": "sheet LOPAC_screen_w_protease, LOPAC1280 at 5 µM, mean of two replicates, read-out: mean", "result": 1.1, "unit": "%"},
      {"measurement": "inhibition at 5 µM", "setting": "sheet LOPAC_screen_w_protease, LOPAC1280 at 5 µM, replicate 1, read-out: Replicate_1", "result": 1.83, "unit": "%"},
      {"measurement": "inhibition at 5 µM", "setting": "sheet LOPAC_screen_w_protease, LOPAC1280 at 5 µM, replicate 2, read-out: Replicate_2", "result": 0.367, "unit": "%"}
    ]},
    {"smiles": "Cl.Clc1ccc(Cn2c(CN3CCCC3)nc3ccccc32)cc1", "note": "[Clemizole hydrochloride]", "values": [
      {"measurement": "mean", "setting": "sheet LOPAC_screen_w_protease, primary screen with protease, compound at 5 µM, mean of two replicates", "result": 3.083},
      {"measurement": "Replicate_1", "setting": "sheet LOPAC_screen_w_protease, primary screen with protease, compound at 5 µM, replicate 1", "result": 2.873},
      {"measurement": "Replicate_2", "setting": "sheet LOPAC_screen_w_protease, primary screen with protease, compound at 5 µM, replicate 2", "result": 3.2929}
    ]},
    {"smiles": "CCCNC(C)C(=O)Nc1ccccc1C", "note": "(stereo not drawn) [Prilocaine hydrochloride]", "values": [
      {"measurement": "inhibition at 5 µM", "setting": "[4]", "result": 0.116, "unit": "%"},
      {"measurement": "inhibition at 5 µM", "setting": "[5]", "result": 0.518, "unit": "%"},
      {"measurement": "inhibition at 5 µM", "setting": "[6]", "result": -0.285, "unit": "%"}
    ]},
    {"smiles": "CN1C2CCC1CC(OC(c1ccccc1)c1ccc(Cl)cc1)C2.Cl", "note": "(stereo not drawn)", "values": [
      {"measurement": "Replicate_1 (LOPAC_screen_w_protease)", "result": 2.149},
      {"measurement": "Replicate_2 (LOPAC_screen_w_protease)", "result": 0.9226},
      {"measurement": "mean (LOPAC_screen_w_protease)", "result": 1.536}
    ]},
    {"smiles": "OC[C@H]1NC[C@@H](O)[C@@H]1O", "note": "[1,4-Dideoxy-1,4-imino-D-arabinitol]", "values": [
      {"measurement": "mean (LOPAC_screen_w_protease)", "setting": "[9]", "result": 1.627},
      {"measurement": "Replicate_1 (LOPAC_screen_w_protease)", "setting": "[10]", "result": 1.388},
      {"measurement": "Replicate_2 (LOPAC_screen_w_protease)", "setting": "[11]", "result": 1.866}
    ]},
    {"smiles": "CC(CN1c2ccccc2Sc2ccccc21)N(C)C", "note": "(stereo not drawn) [Promethazine hydrochloride]", "values": [
      {"measurement": "inhibition at 5 µM", "setting": "sheet LOPAC_screen_w_protease, primary screen of LOPAC1280 at 5 µM with protease, mean of the two replicates, read-out: mean", "result": 3.55, "unit": "%"},
      {"measurement": "inhibition at 5 µM", "setting": "sheet LOPAC_screen_w_protease, primary screen of LOPAC1280 at 5 µM with protease, replicate 1, read-out: Replicate_1", "result": 1.74, "unit": "%"},
      {"measurement": "inhibition at 5 µM", "setting": "sheet LOPAC_screen_w_protease, primary screen of LOPAC1280 at 5 µM with protease, replicate 2, read-out: Replicate_2", "result": 5.35, "unit": "%"}
    ]},
    {"smiles": "COc1cc2c(cc1OC)-c1c/c(=N\\c3c(C)cc(C)cc3C)n(C)c(=O)n1CC2", "note": "[Trequinsin hydrochloride]", "values": [
      {"measurement": "inhibition at 5 µM", "setting": "[7]", "result": 1.97, "unit": "%"},
      {"measurement": "inhibition at 5 µM", "setting": "[8]", "result": 2, "unit": "%"},
      {"measurement": "mean (LOPAC_screen_w_protease)", "setting": "[12]", "result": 1.986}
    ]},
    {"smiles": "CN1CCC(c2c[nH]c3ccc(O)cc23)CC1.O=C(O)/C=C\\C(=O)O", "note": "[BRL 54443 maleate]", "values": [
      {"measurement": "mean", "setting": "[13]", "result": 2.426},
      {"measurement": "Replicate_1", "setting": "[14]", "result": 0.4828},
      {"measurement": "Replicate_2", "setting": "[15]", "result": 4.37}
    ]},
    {"smiles": "NC(=S)c1ccc[n+]([C@@H]2O[C@@H](COP(=O)([O-])OP(=O)(O)OC[C@H]3O[C@@H](n4cnc5c(N)ncnc54)C(OP(=O)([O-])O)[C@H]3O)C(O)C2O)c1.[Na+]", "note": "(stereo partly drawn) [Thio-NADP sodium]", "values": [
      {"measurement": "mean (LOPAC_screen_w_protease)", "setting": "[9]", "result": 1.323},
      {"measurement": "Replicate_1 (LOPAC_screen_w_protease)", "setting": "[10]", "result": 2.439},
      {"measurement": "Replicate_2 (LOPAC_screen_w_protease)", "setting": "[11]", "result": 0.2062}
    ]},
    {"smiles": "COc1cccc(C(=O)NCCN2CCN(c3ccc(Cl)cc3)CC2)c1", "values": [
      {"measurement": "mean", "setting": "[13]", "result": 2.269},
      {"measurement": "Replicate_1", "setting": "[14]", "result": 1.008},
      {"measurement": "Replicate_2", "setting": "[15]", "result": 3.529}
    ]},
    {"smiles": "C[C@](N)(CCP(=O)(O)O)C(=O)O.Cl", "note": "[(S)-MAP4 hydrochloride]", "values": [
      {"measurement": "mean", "setting": "[1]", "result": 4.027},
      {"measurement": "Replicate_1", "setting": "[2]", "result": 4.444},
      {"measurement": "Replicate_2", "setting": "[3]", "result": 3.611}
    ]},
    {"smiles": "Cc1ccc(OCC(O)C(C)NC(C)C)c2c1CCC2.Cl", "note": "(stereo not drawn) [ICI 118,551 hydrochloride]", "values": [
      {"measurement": "mean (LOPAC_screen_w_protease)", "setting": "[12]", "result": 1.851},
      {"measurement": "Replicate_1 (LOPAC_screen_w_protease)", "setting": "[10]", "result": 3.391},
      {"measurement": "Replicate_2 (LOPAC_screen_w_protease)", "setting": "[11]", "result": 0.3114}
    ]},
    {"smiles": "O=C(O)/C=C1\\CCCc2ccccc2C1O", "note": "(stereo not drawn) [NCS-382]", "values": [
      {"measurement": "mean", "setting": "sheet LOPAC_screen_w_protease, LOPAC1280 primary screen with protease, 5 µM compound, mean of the two replicates", "result": 5.8931},
      {"measurement": "Replicate_1", "setting": "sheet LOPAC_screen_w_protease, LOPAC1280 primary screen with protease, 5 µM compound, replicate 1", "result": 5.187},
      {"measurement": "Replicate_2", "setting": "sheet LOPAC_screen_w_protease, LOPAC1280 primary screen with protease, 5 µM compound, replicate 2", "result": 6.599}
    ]},
    {"smiles": "CCCCCCCCCCCCCCCCCCOCC(COP(=O)([O-])OCC[N+](C)(C)C)OC", "note": "(stereo not drawn) [ET-18-OCH3]", "values": [
      {"measurement": "mean (LOPAC_screen_w_protease)", "setting": "[9]", "result": 1.443},
      {"measurement": "Replicate_1 (LOPAC_screen_w_protease)", "setting": "[10]", "result": 1.735},
      {"measurement": "Replicate_2 (LOPAC_screen_w_protease)", "setting": "[11]", "result": 1.151}
    ]}
  ]
}
